Source: the NIST ThermoML archive (doi:10.1007/s10765-007-0186-y)

Assay: molar heat capacity at constant pressure
Settings: Gas, Flow calorimetry

CC(F)(F)F [1,1,1-trifluoroethane]
Settings	molar heat capacity at constant pressure [J/K/mol]
311.15 K, 1600 kPa	120.18
317.15 K, 1800 kPa	125.89
318.15 K, 1600 kPa	111.77
318.15 K, 2000 kPa	139.51
324.15 K, 2200 kPa	145.31
326.15 K, 2400 kPa	161.69
327.15 K, 2400 kPa	160.77
338.15 K, 2400 kPa	130.6
341.15 K, 2200 kPa	117.24
343.15 K, 2400 kPa	124.8
